The results in this text go back to PubChem BioAssay AID330 (DTP/NCI, 2004).

Several values for one entry are separate records, joined by “and”; a condition that tells them apart may be missing. Equal entries are not always repeated. Toxic doses and inconclusive results are not listed.

For this assay, the system named is P388 leukemia ip, CD2F1 mice, survival T/C. In words: NCI In Vivo Anticancer Drug Screen. Data for tumor model P388 Leukemia (intraperitoneal) in CD2F1 (CDF1) mice. The note with it: endpoint: median survival time, higher = longer survival. Put shortly: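 Mice carrying the transplanted tumor received test compound or vehicle. Survival was recorded in each group, and the value is the treated-group measurement divided by that of the vehicle-treated control group.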

Where [1] appears, read: dose: 50.0 mg/kg/injection, schedule: Q01DX009 (ip), vehicle: saline with Tween-80.
Where [2] appears, read: dose: 100.0 mg/kg/injection, schedule: Q01DX009 (ip), vehicle: saline with Tween-80.
[3] abbreviates: dose: 200.0 mg/kg/injection, schedule: Q01DX009 (ip), vehicle: saline with Tween-80.
Setting [4] is: dose: 25.0 mg/kg/injection, schedule: Q01DX009 (ip), vehicle: saline with Tween-80.
Setting [5] is: dose: 60.0 mg/kg/injection, schedule: Q01DX005 (ip), vehicle: saline with Tween-80.
Setting [6] is: dose: 120.0 mg/kg/injection, schedule: Q01DX005 (ip), vehicle: saline with Tween-80.
Where [7] appears, read: dose: 240.0 mg/kg/injection, schedule: Q01DX005 (ip), vehicle: saline with Tween-80.
Setting [8] is: dose: 100.0 mg/kg/injection, schedule: Q04DX002 (ip), vehicle: saline with Tween-80.
The mark [9] stands for this setting: dose: 200.0 mg/kg/injection, schedule: Q04DX002 (ip), vehicle: saline with Tween-80.
Setting [10] is: dose: 400.0 mg/kg/injection, schedule: Q04DX002 (ip), vehicle: saline with Tween-80.
Setting [11] is: dose: 240.0 mg/kg/injection, schedule: Q01DX005 (ip), vehicle: Klucel (hydroxypropylcellulose) (HPC).
[12] abbreviates: dose: 25.0 mg/kg/injection, schedule: Q01DX009 (ip), vehicle: water.
Where [13] appears, read: dose: 50.0 mg/kg/injection, schedule: Q01DX009 (ip), vehicle: water.
Where [14] appears, read: dose: 100.0 mg/kg/injection, schedule: Q01DX009 (ip), vehicle: water.
The mark [15] stands for this setting: dose: 50.0 mg/kg/injection, schedule: Q01DX005 (ip), vehicle: saline with Tween-80.
Setting [16] is: dose: 100.0 mg/kg/injection, schedule: Q01DX005 (ip), vehicle: saline with Tween-80.

`COc1ccc(NC2=NC(C)(CO)CS2)cc1` (centres undefined): the T/C runs as follows: under setting [1], 116 % of control; under setting [2], 96 % of control; under setting [3], 107 % of control.
As to `COc1ccc(C(=O)NO)cc1`, the T/C was 109 % of control under setting [1]; 102 % of control under setting [2]; 109 % of control under setting [3]; 115 % of control (dose: 400.0 mg/kg/injection, schedule: Q01DX009 (ip), vehicle: saline with Tween-80).
`NC(=O)c1nc[nH]c1F`: the T/C runs as follows: (dose: 6.25 mg/kg/injection, schedule: Q01DX009 (ip), vehicle: saline with Tween-80) 102 % of control; (dose: 12.5 mg/kg/injection, schedule: Q01DX009 (ip), vehicle: saline with Tween-80) 102 % of control; under setting [4], 103 % of control; under setting [1], 104 % of control.
Turning to `CC1(C)C2CC=C(CCOC(=S)S)C1C2.[Ni]` (centres undefined), the T/C under setting [4] was 90 % of control.
`CC1(C)CCC[C@]2(C)[C@@H](C=O)C(C=O)=CC[C@@H]12`: the T/C reads like this: (dose: 3.12 mg/kg/injection, schedule: Q01DX005 (ip), vehicle: Klucel (hydroxypropylcellulose) (HPC)) 102 % of control; (dose: 6.25 mg/kg/injection, schedule: Q01DX005 (ip), vehicle: Klucel (hydroxypropylcellulose) (HPC)) 103 % of control; (dose: 12.5 mg/kg/injection, schedule: Q01DX005 (ip), vehicle: Klucel (hydroxypropylcellulose) (HPC)) 106 % of control.
Consider `COC(=O)C(=O)C1CCc2c(C(=O)OC)nc3nnc(N)n3c21` (centres undefined), for which the T/C was 94 % of control under setting [5], 99 % of control under setting [6] and 87 % of control under setting [7].
Consider `CCOC(CCl)OCC`, for which the T/C (dose: 6.25 mg/kg/injection, schedule: Q01DX009 (ip), vehicle: saline) was 103 % of control and 105 % of control.
On to `Cn1c2ccccc2c2nnc(N/N=C/c3ccncc3)nc21`, for which the T/C is, setting by setting: under setting [8], 88 % of control; under setting [9], 88 % of control; under setting [10], 99 % of control and 100 % of control.
With `CCOCc1ccc(C(=O)NCCCc2c(-c3ccccc3)nc(N)[nH]c2=O)cc1`, the T/C reads like this: (dose: 3.75 mg/kg/injection, schedule: Q01DX005 (ip), vehicle: Klucel (hydroxypropylcellulose) (HPC)) 100 % of control and 103 % of control and 94 % of control; (dose: 7.5 mg/kg/injection, schedule: Q01DX005 (ip), vehicle: Klucel (hydroxypropylcellulose) (HPC)) 93 % of control and 97 % of control; (dose: 15.0 mg/kg/injection, schedule: Q01DX005 (ip), vehicle: Klucel (hydroxypropylcellulose) (HPC)) 89 % of control and 92 % of control and 97 % of control; under setting [11], 86 % of control.
In the case of `CC(=O)OCc1ccc2ccccc2c1`, the T/C (dose: 100.0 mg/kg/injection, schedule: Q01DX009 (ip), vehicle: saline sonified) was 100 % of control; the T/C (dose: 200.0 mg/kg/injection, schedule: Q01DX009 (ip), vehicle: saline sonified) is 100 % of control; the T/C (dose: 400.0 mg/kg/injection, schedule: Q01DX009 (ip), vehicle: saline sonified) was 100 % of control.
Consider `O=[N+]([O-])c1ccc(S(=O)(=O)OI(O)c2ccccc2)cc1`, for which the T/C under setting [12] is 104 % of control and 105 % of control; the T/C under setting [13] was 98 % of control and 120 % of control and 96 % of control; the T/C under setting [14] is 100 % of control and 101 % of control and 91 % of control.
Turning to `CC1[N-]CCCN(CCN(C)C)CCC[N-]C(C)C2CCCC1[N-]2.[Ni+3].[O-][Cl+3]([O-])([O-])O` (centres undefined), the T/C (dose: 100.0 mg/kg/injection, schedule: Q01DX001 (ip), vehicle: saline) is 106 % of control.
Take `CC(=O)OCC(=O)[C@@]1(O)CC[C@H]2[C@@H]3CCC4=CC(=O)[C@H](C)C[C@]4(C)[C@H]3[C@@H](O)C[C@@]21C`: the T/C (dose: 100.0 mg/kg/injection, schedule: Q04DX003 (ip), vehicle: other) was 100 % of control; the T/C (dose: 200.0 mg/kg/injection, schedule: Q04DX003 (ip), vehicle: other) was 100 % of control; the T/C (dose: 400.0 mg/kg/injection, schedule: Q04DX003 (ip), vehicle: other) was 115 % of control.
`c1ccc2c(c1)CCc1ccccc1C2NC1=NCCSC1`: the T/C under setting [1] was 86 % of control and the T/C under setting [2] is 93 % of control.
Turning to `CCOC(=O)C(=O)N(CCCNc1c2ccccc2nc2c(OC)cccc12)CCCNc1c2ccccc2nc2c(OC)cccc12`, the T/C by setting is: (dose: 1.25 mg/kg/injection, schedule: Q01DX009 (ip), vehicle: water) 120 % of control; (dose: 2.5 mg/kg/injection, schedule: Q01DX009 (ip), vehicle: water) 120 % of control; (dose: 10.0 mg/kg/injection, schedule: Q01DX009 (ip), vehicle: water) 161 % of control.
For `CN(C)CCCN1c2ccccc2Oc2ccc(Cl)cc21`, the T/C (dose: 50.0 mg/kg/injection, schedule: Q01DX005 (ip), vehicle: saline) was 105 % of control and the T/C (dose: 100.0 mg/kg/injection, schedule: Q01DX005 (ip), vehicle: saline) is 106 % of control.
For `COC(=O)CCSCCO`, the T/C is, setting by setting: under setting [5], 119 % of control; under setting [6], 109 % of control; under setting [7], 101 % of control.
Regarding `O=C(O)C(=O)Nc1cccc2c1ccc1c(=O)cc(C(=O)O)[nH]c12`, the T/C was 109 % of control (dose: 50.0 mg/kg/injection, schedule: Q01DX009 (ip), vehicle: saline); 109 % of control (dose: 100.0 mg/kg/injection, schedule: Q01DX009 (ip), vehicle: saline); 104 % of control (dose: 200.0 mg/kg/injection, schedule: Q01DX009 (ip), vehicle: saline).
Consider `O=C1C=CC2C=CC1C=C2`, for which the T/C (dose: 25.0 mg/kg/injection, schedule: Q01DX005 (ip), vehicle: saline with Tween-80) is 116 % of control; the T/C under setting [15] was 104 % of control; the T/C under setting [5] is 118 % of control; the T/C under setting [16] was 122 % of control.
Regarding `COC(=O)c1nc(=S)[nH]c(C(=O)OC)c1C(=O)c1c(C)[nH]c2ccccc12`, the T/C runs as follows: (dose: 60.0 mg/kg/injection, schedule: Q01DX005 (ip), vehicle: Klucel (hydroxypropylcellulose) (HPC)) 98 % of control; (dose: 120.0 mg/kg/injection, schedule: Q01DX005 (ip), vehicle: Klucel (hydroxypropylcellulose) (HPC)) 96 % of control; under setting [11], 95 % of control.
As for `CN(C)C(=S)Oc1ccccc1C1SCCS1`, the T/C is 101 % of control under setting [15]; 99 % of control under setting [16]; 105 % of control (dose: 200.0 mg/kg/injection, schedule: Q01DX005 (ip), vehicle: saline with Tween-80).
For `CCCC[P+](CCCC)(CCCC)CCN1C(=O)c2ccccc2C1=O`, the T/C is, setting by setting: (dose: 0.78 mg/kg/injection, schedule: Q01DX009 (ip), vehicle: water) 92 % of control; (dose: 1.56 mg/kg/injection, schedule: Q01DX009 (ip), vehicle: water) 93 % of control; (dose: 3.13 mg/kg/injection, schedule: Q01DX009 (ip), vehicle: water) 106 % of control; (dose: 6.25 mg/kg/injection, schedule: Q01DX009 (ip), vehicle: water) 99 % of control; (dose: 12.5 mg/kg/injection, schedule: Q01DX009 (ip), vehicle: water) 100 % of control; under setting [12], 100 % of control and 101 % of control. The T/C runs as follows: under setting [13], 106 % of control; under setting [14], 116 % of control.
For the compound `CC(C)OC1CC(C)(C)c2c(-c3ccccc3)nn(-c3ccccc3)c2O1` (centres undefined), the T/C is 109 % of control under setting [1], 98 % of control under setting [2] and 107 % of control under setting [3].
For `N#CC1CC(c2ccc([N+](=O)[O-])cc2)N(c2ccccc2)O1` (centres undefined), the T/C by setting is: (dose: 100.0 mg/kg/injection, schedule: Q01DX001 (ip), vehicle: saline with Tween-80) 95 % of control; under setting [8], 100 % of control and 104 % of control; (dose: 200.0 mg/kg/injection, schedule: Q01DX001 (ip), vehicle: saline with Tween-80) 94 % of control; under setting [9], 95 % of control and 88 % of control; (dose: 400.0 mg/kg/injection, schedule: Q01DX001 (ip), vehicle: saline with Tween-80) 92 % of control; under setting [10], 98 % of control and 90 % of control.
`COc1cc2c(c3c1c(=S)c1ccccc1n3C)C=CC(C)(C)O2`: the T/C (dose: 50.0 mg/kg/injection, schedule: Q01DX005 (ip), vehicle: Klucel (hydroxypropylcellulose) (HPC)) is 98 % of control; the T/C (dose: 100.0 mg/kg/injection, schedule: Q01DX005 (ip), vehicle: Klucel (hydroxypropylcellulose) (HPC)) was 98 % of control; the T/C (dose: 200.0 mg/kg/injection, schedule: Q01DX005 (ip), vehicle: Klucel (hydroxypropylcellulose) (HPC)) was 108 % of control.
